Reference: patent publication US10694752B2 (priority 2016, dated 2020)
Where “and” joins values, the source holds several entries; their conditions need not be identical. Equal entries are not always repeated.

What was measured:
[1] = test system: wild type Chlorella sorokiniana; assay: Growth of wild type Chlorella sorokiniana in the presence of propiconazole (OD at 750 nm); format: cell-based; conditions: 10 μM propiconazole; FIG. 1
Procedure: (§1) Chlorella sorokiniana cells (Wild type) and propiconazole resistant mutants of Chlorella species (PcZ-2) were inoculated at 0.1-0.15 OD@750 nm (each set in triplicates). To verify the effect of methanol (propiconazole was dissolved in methanol), one set was treated with 0.1% methanol. One set of flasks in triplicate of Wild type and PcZ-2 mutants were inoculated with and without 10 μM propiconazole. After inoculation flasks were kept in 12 h light/12 hour dark cycles of white light in an incubator shaker at 100 rpm. The temperature was 28° C., 70% humidity and 2% ambient CO2. 3 mL sample was removed each day, to determine the Optical density (OD) of the culture at 750 nm. The results obtained are as illustrated in FIG. 1.
(§2) FIG. 1 illustrates a graph of the growth comparison between wild type Chlorella sorokiniana and propiconazole resistant Chlorella sorokiniana mutant PcZ-2, in the presence of propiconazole, wherein A represents wild type Chlorella sorokiniana in the absence of propiconazole, B represents wild type Chlorella sorokiniana grown in the presence of 0.1% methanol, C represents wild type Chlorella sorokiniana grown in the presence of 10 μM propiconazole, D represents PcZ-2 grown in the absence of propiconazole, E represents PcZ-2 grown in the presence of 0.1% methanol, and F represents PcZ-2 grown in the presence of 10 μM propiconazole.

[2] = test system: propiconazole resistant Chlorella sorokiniana mutant PcZ-2 (CCAP 211/134); assay: Growth of propiconazole resistant mutant PcZ-2 in the presence of propiconazole (OD at 750 nm); format: cell-based; conditions: 10 μM propiconazole; for Average % increase PcZ-2 + 10 uM PcZ: average of triplicates, compared with wild type without propiconazole; for % increase PcZ-2 + 10 μM PcZ: growth of PcZ-2 compared with wild type without propiconazole, individual replicates, 28° C., listed as PcZ
Procedure: as §1, §2

Q: How did the “growth of wild type Chlorella sorokiniana culture in the presence of propiconazole” value [1] turn out when `CCCC1COC(Cn2cncn2)(c2ccc(Cl)cc2Cl)O1` (centres unmarked) [propiconazole, Propiconazole] was run?
A: crashes after a few days

Q: And the “growth of PcZ-2 in the presence of propiconazole” value ([2]; FIG. 1)?
A: capable of growing

Q: And the “Average % increase PcZ-2 + 10 uM PcZ” value ([2]; day 4)?
A: 62.66%

Q: What about the “% increase PcZ-2 + 10 μM PcZ” value ([2]; day 4) of the same compound?
A: 52.73% and 66.67% and 68.57%

Q: What about the “Average % increase PcZ-2 + 10 uM PcZ” value ([2]; day 6) of the same compound?
A: 20.01%

Q: What about the “% increase PcZ-2 + 10 μM PcZ” value ([2]; day 6) of the same compound?
A: 13.33% and 28.96% and 17.75%

Q: What about the “Average % increase PcZ-2 + 10 uM PcZ” value ([2]; day 7) of the same compound?
A: 21.07%

Q: What about the “% increase PcZ-2 + 10 μM PcZ” value ([2]; day 7) of the same compound?
A: 10.64% and 29.37% and 23.19%
